We go through 10 molecules from PMC5960717 (Frontiers in Microbiology, 2018).

One series concerns the target T1, ScAlt2 (Saccharomyces cerevisiae, UniProt P52892).
T1 construct: gene ALT2; N-terminal His-tag (pET-28a), E. coli Rosetta 2 (DE3), 4°C expression; forward primer ATGACAATGACACACCAACAGG (MTMTHQQ); theoretical monomer 58 kDa, SEC 127 kDa, dimer
T1 sequence (P52892 1-507): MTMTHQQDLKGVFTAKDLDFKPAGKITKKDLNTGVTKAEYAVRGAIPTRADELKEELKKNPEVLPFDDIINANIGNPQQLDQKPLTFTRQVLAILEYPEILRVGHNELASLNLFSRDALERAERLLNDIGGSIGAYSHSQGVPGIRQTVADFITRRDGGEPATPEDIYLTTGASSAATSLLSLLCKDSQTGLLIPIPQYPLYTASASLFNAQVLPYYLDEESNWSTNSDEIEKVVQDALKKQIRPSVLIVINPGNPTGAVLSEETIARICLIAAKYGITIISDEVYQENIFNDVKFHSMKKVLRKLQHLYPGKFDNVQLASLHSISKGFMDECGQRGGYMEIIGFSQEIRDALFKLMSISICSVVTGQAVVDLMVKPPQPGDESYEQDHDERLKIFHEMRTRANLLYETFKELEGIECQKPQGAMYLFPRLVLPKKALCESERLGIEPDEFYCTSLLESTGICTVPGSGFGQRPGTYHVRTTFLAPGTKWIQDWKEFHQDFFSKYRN
Description: UV-visible absorption of Schiff base ([…] nm), NaBH4 reduction. It counts as binding. The note with it: covalent (reversible internal Schiff base, ketoenamine); 50 mM K2HPO4, 4 mM MgCl2, pH 7.5, 100 μM PLP.

The target of series [1] is T2, ScAlt1 (Saccharomyces cerevisiae, UniProt P52893).
T2 construct: gene ALT1; N-terminal His-tag (pET-28a), E. coli Rosetta 2 (DE3); theoretical monomer 61 kDa, SEC 147 kDa, dimer
T2 sequence (P52893 81-592): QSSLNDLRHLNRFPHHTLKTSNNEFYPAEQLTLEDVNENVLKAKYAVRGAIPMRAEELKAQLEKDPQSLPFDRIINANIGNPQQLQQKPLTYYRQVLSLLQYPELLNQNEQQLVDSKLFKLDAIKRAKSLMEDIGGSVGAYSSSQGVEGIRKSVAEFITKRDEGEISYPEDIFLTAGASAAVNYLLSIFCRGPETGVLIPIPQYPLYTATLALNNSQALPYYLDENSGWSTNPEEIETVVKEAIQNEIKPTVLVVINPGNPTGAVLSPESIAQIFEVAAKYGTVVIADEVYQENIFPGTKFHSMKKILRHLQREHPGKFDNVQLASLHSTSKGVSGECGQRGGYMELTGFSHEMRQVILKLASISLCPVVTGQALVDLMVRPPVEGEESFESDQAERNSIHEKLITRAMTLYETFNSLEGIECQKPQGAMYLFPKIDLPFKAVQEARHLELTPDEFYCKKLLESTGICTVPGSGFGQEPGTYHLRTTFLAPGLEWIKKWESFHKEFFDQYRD
Description: UV-visible absorption of Schiff base ([…]-335 and […] nm), NaBH4 reduction. The note with it: covalent (reversible internal Schiff base, enolimine and ketoenamine); 50 mM K2HPO4, 4 mM MgCl2, pH 7.5, 100 μM PLP. It counts as binding.

Series [2] has as its target T2, ScAlt1. Description: intrinsic fluorescence titration ([…] nm). It counts as binding.
Series [3] deals with T2, ScAlt1. The series is described as follows: UV-visible shift, external Schiff base ([…] nm). The format is binding. The note with it: 50 mM KH2PO4, 4 mM MgCl2, PLP, covalent.
Series [4] deals with the molecule itself. The series is described as follows: SEC; Superose 6 10/300 GL on an Akta FPLC; mobile phase 50 mM K2HPO4, 4 mM Mg2Cl, pH 7.5; calibrated with Bio-Rad molecular weight standards.
Substrate in series [5]: C[C@H](N)C(=O)O
The series is described as follows: purified protein. The note with it: varied alanine 2-15 mM and α-ketoglutarate 0.05-10 mM, 40 μM PLP, pH 7.5, 25°C, ping-pong, Ka here = Michaelis constant.

Substrate in series [6]: O=C(O)CCC(=O)C(=O)O
Description: purified protein. It counts as biochemical, Saccharomyces cerevisiae. The note with it: varied alanine 2-15 mM and α-ketoglutarate 0.05-10 mM, 40 μM PLP, pH 7.5, 25°C, ping-pong, Ka here = Michaelis constant, co-substrate alanine.

The mark [7] stands for this setting: 1 μl of 81 mM stock added to 10 μl protein.

Usually Kd stands for the concentration at which binding is half-saturated. Higher therefore signals a looser complex. Usually stoichiometry N stands for the number of molecules, sites or subunits per partner or assembly. For orientation: kcat means the number of substrate molecules converted per active site and unit of time at saturation.

For the molecule `Cc1ncc(COP(=O)(O)O)c(C=O)c1O` [PLP], the “UV-visible absorption of Schiff base (420 nm), NaBH4 reduction” value on ScAlt2 was “both, ScAlt1 and ScAlt2 have PLP attached through a Schiff base”. Besides, the “UV-visible absorption of Schiff base (330-335 and 420 nm), NaBH4 reduction” value at ScAlt1 [1] is “both, ScAlt1 and ScAlt2 have PLP attached through a Schiff base”.
On ScAlt1 [2], `C[C@H](N)C(=O)O` [alanine] registered a Kd of 1000 ± 100 µM.
In the case of `N[C@@H](CC(=O)O)C(=O)O` [aspartic acid], on ScAlt1 [3] (setting [7]), the “UV-visible shift, external Schiff base (325 nm)” value (from here on “UV-visible shift”) was “ScAlt1 could form external Schiff base with glutamate, serine, cysteine, histidine, and aspartic acid”.
As to `N[C@@H](CS)C(=O)O` [cysteine], the “UV-visible shift” value on ScAlt1 [3] (1 μl of 238 mM stock added to 10 μl protein) was “ScAlt1 could form external Schiff base with glutamate, serine, cysteine, histidine, and aspartic acid”.
For the molecule `N[C@@H](CCC(=O)O)C(=O)O` [glutamate], the “UV-visible shift” value at ScAlt1 [3] (setting [7]) is “ScAlt1 could form external Schiff base with glutamate, serine, cysteine, histidine, and aspartic acid”.
Regarding `N[C@@H](Cc1cnc[nH]1)C(=O)O` [histidine], at ScAlt1 [3] (1 μl of 20 mM stock added to 10 μl protein), the “UV-visible shift” value was “ScAlt1 could form external Schiff base with glutamate, serine, cysteine, histidine, and aspartic acid”.
As to `N[C@@H](CO)C(=O)O` [serine], the “UV-visible shift” value on ScAlt1 [3] (1 μl of 23 mM stock added to 10 μl protein) was “ScAlt1 could form external Schiff base with glutamate, serine, cysteine, histidine, and aspartic acid”.

B1: ScAlt2 (Saccharomyces cerevisiae presumed alanine transaminase paralogue), recombinant (enzyme, S. cerevisiae, UniProt P52892 1-507, looked up)
chain: MTMTHQQDLKGVFTAKDLDFKPAGKITKKDLNTGVTKAEYAVRGAIPTRADELKEELKKNPEVLPFDDIINANIGNPQQLDQKPLTFTRQVLAILEYPEILRVGHNELASLNLFSRDALERAERLLNDIGGSIGAYSHSQGVPGIRQTVADFITRRDGGEPATPEDIYLTTGASSAATSLLSLLCKDSQTGLLIPIPQYPLYTASASLFNAQVLPYYLDEESNWSTNSDEIEKVVQDALKKQIRPSVLIVINPGNPTGAVLSEETIARICLIAAKYGITIISDEVYQENIFNDVKFHSMKKVLRKLQHLYPGKFDNVQLASLHSISKGFMDECGQRGGYMEIIGFSQEIRDALFKLMSISICSVVTGQAVVDLMVKPPQPGDESYEQDHDERLKIFHEMRTRANLLYETFKELEGIECQKPQGAMYLFPRLVLPKKALCESERLGIEPDEFYCTSLLESTGICTVPGSGFGQRPGTYHVRTTFLAPGTKWIQDWKEFHQDFFSKYRN
notes: ScAlt2 of S. cerevisiae, amplified from genomic DNA of strain CLA1; the forward primer starts at ATGACAATGACACACCAACAGG (MTMTHQQ) and the reverse primer holds the stop codon (TCA ATT ACG ATA ...); theoretical monomer mass printed as 58 kDa; source: E. coli Rosetta 2 (DE3), pET-28a(+), purified (Ni-NTA)
With B1, the “stoichiometry N” value in series [4] amounted to 2.

B2: ScAlt1 (Saccharomyces cerevisiae alanine transaminase), recombinant, without the mitochondrial localization sequence (enzyme, S. cerevisiae, UniProt P52893 65-592, looked up)
chain: SSSWIVAQNHRRSLSGQSSLNDLRHLNRFPHHTLKTSNNEFYPAEQLTLEDVNENVLKAKYAVRGAIPMRAEELKAQLEKDPQSLPFDRIINANIGNPQQLQQKPLTYYRQVLSLLQYPELLNQNEQQLVDSKLFKLDAIKRAKSLMEDIGGSVGAYSSSQGVEGIRKSVAEFITKRDEGEISYPEDIFLTAGASAAVNYLLSIFCRGPETGVLIPIPQYPLYTATLALNNSQALPYYLDENSGWSTNPEEIETVVKEAIQNEIKPTVLVVINPGNPTGAVLSPESIAQIFEVAAKYGTVVIADEVYQENIFPGTKFHSMKKILRHLQREHPGKFDNVQLASLHSTSKGVSGECGQRGGYMELTGFSHEMRQVILKLASISLCPVVTGQALVDLMVRPPVEGEESFESDQAERNSIHEKLITRAMTLYETFNSLEGIECQKPQGAMYLFPKIDLPFKAVQEARHLELTPDEFYCKKLLESTGICTVPGSGFGQEPGTYHLRTTFLAPGLEWIKKWESFHKEFFDQYRD
notes: ScAlt1, alanine transaminase of S. cerevisiae, amplified from genomic DNA of strain CLA1; no residue limits are stated; the forward primer (CATATGCAATCTTCGCTAAACGACCTGC) places the start at Met-QSSLNDL; the reverse primer appears to lie after the stop codon; theoretical monomer mass printed as 61 kDa; The start of the construct can be worked out from the printed forward primer …
For B2, in series [4], the “stoichiometry N” value came out at 2.

B3: ScAlt1 (Saccharomyces cerevisiae S288C) (protein)
chain: QSSLNDLRHLNRFPHHTLKTSNNEFYPAEQLTLEDVNENVLKAKYAVRGAIPMRAEELKAQLEKDPQSLPFDRIINANIGNPQQLQQKPLTYYRQVLSLLQYPELLNQNEQQLVDSKLFKLDAIKRAKSLMEDIGGSVGAYSSSQGVEGIRKSVAEFITKRDEGEISYPEDIFLTAGASAAVNYLLSIFCRGPETGVLIPIPQYPLYTATLALNNSQALPYYLDENSGWSTNPEEIETVVKEAIQNEIKPTVLVVINPGNPTGAVLSPESIAQIFEVAAKYGTVVIADEVYQENIFPGTKFHSMKKILRHLQREHPGKFDNVQLASLHSTSKGVSGECGQRGGYMELTGFSHEMRQVILKLASISLCPVVTGQALVDLMVRPPVEGEESFESDQAERNSIHEKLITRAMTLYETFNSLEGIECQKPQGAMYLFPKIDLPFKAVQEARHLELTPDEFYCKKLLESTGICTVPGSGFGQEPGTYHLRTTFLAPGLEWIKKWESFHKEFFDQYRD
notes: N-terminal His-tag (pET-28a), E. coli Rosetta 2 (DE3); theoretical monomer 61 kDa, SEC 147 kDa, dimer
For the molecule B3, in the series “purified protein [5]”, the Km was 10.39 ( ± 1.12) mM and the kcat was found to be 698 s⁻¹. For the same molecule, in the series “purified protein [6]”, the Km is 0.67 ( ± 0.06) mM and the kcat came to 698 s⁻¹.
